Experimental data from patent US11180503B2, “[1,2,4]Triazolo[4,3-A]pyrazin-6(5H)-one derivatives” (Eli Lilly and Company, priority 2017, dated 2021).

Legend:
Type in all cases: biochemical
human PDE1C = human PDE1C (Homo sapiens (Human), UniProt Q14123); experiment: Ca2+-calmodulin dependent PDE enzyme assay (radiometric SPA, [3H]cAMP); details: human PDE1C 0.0012 nM, [3H]cAMP 47 nM; read-out: PDE 1C IC50
Text: (§1) The nucleotide sequences encoding full-length human PDE1A (NP_001003683.1) and PDE1C (NP_005011.1) are inserted into pFastBac1 (Invitrogen) vector with an N-terminal HIS tag. The nucleotide sequences encoding full-length human PDE4D (NP_006194.2) and catalytic domain (residue 641-1141) of PDE3A (NP_000912.3) are inserted into pFastBac1 (Invitrogen) vector with a C-terminal HIS tag. The nucleotide sequences encoding full-length human PDE6A (NP_000431.2) and PDE6B (AAH00249.1) are inserted into pFastBacDual (Invitrogen) vector with an N-terminal HIS tag and N-terminal Flag tag, respectively, for production of PDE6A/6B dimer. Baculovirus generation and protein expression in Sf9 cells are carried out according to the protocol of Bac-to-Bac Baculovirus Expression system (Invitrogen). The nucleotide sequence encoding full-length human PDE1B (NP_000915.1) is inserted into pIEX4 (Novagen) with a C-terminal HIS tag, and both protein productions in Sf9 cells are carried out according to the vendor's protocol (Novagen). The His tagged PDE proteins are purified using Ni-NTA agarose (Qiagen) followed by size exclusion chromatography on a SUPERDEX® 200 column (GE Healthcare) in storage buffer (20 mM Tris-HCl, pH7.5, 150 mM NaCl, 10% Glycerol). The Flag tagged PDE proteins including PDE6A/6B are purified using anti-Flag M2-agarose (Sigma), after purification through NiNTA column chromatography and eluted in storage buffer (50 mM Tris-HCl, pH7.5, 150 mM NaCl, 10% Glycerol, 0.1 mg/ml Flag peptide). All purified proteins are stored at −80° C. in small aliquots.
(§2) All 3′,5′ cyclic nucleotide phosphodiesterase (PDE) enzyme activities are measured with a radiometric enzyme assay based on SPA detection system (scintillation proximity assay). Compounds to be tested are diluted in pure dimethyl sulfoxide (DMSO) using ten point concentration response curves. Maximal compound concentration in the reaction mixture is either 10 or 100 μM. Compounds at the appropriate concentration are pre-incubated with either of the PDE enzymes for 30 minutes before the reaction is started by the addition of substrate. Reactions are allowed to proceed for 60 minutes at room temperature. Next, reactions are stopped by addition of SPA beads. Samples are read 12 hours later in a MICROBETA™ TRILUX® Counter. “IC50” refers to the concentration of the compound that produces 50% of the maximal inhibitory response possible for that compound. IC50 values are calculated by plotting the normalized data vs. log [compound] and fitting the data using a four parameter logistic equation.
(§3) PDE1B, PDE1A, and PDE1C are cloned and purified following standard protein generation procedures. The assay buffer is prepared to give a final concentration in the assay of 50 mM Tris-HCl, 50 mM MgCl2, 4 mM CaCl2, 0.1% Bovine serum albumin and 6 U/ml Calmodulin in water, at pH 7.5. The final enzyme concentration is 0.25, 0.074 and 0.0012 nM, for PDE1A, PDE1B and PDE1C respectively. The reactions are started by addition of the substrate, [^3H]cAMP, to give a final concentration of 47 nM.

human PDE1B = human PDE1B (Homo sapiens (Human), UniProt Q01064); experiment: as above; details: human PDE1B 0.074 nM, [3H]cAMP 47 nM; read-out: PDE 1B IC50
Text: as §1, §2, §3

human PDE1A = human PDE1A (Homo sapiens (Human), UniProt P54750); experiment: as above; details: human PDE1A 0.25 nM, [3H]cAMP 47 nM; read-out: PDE 1A IC50
Text: as §1, §2, §3

[1] = target: human PDE3A (catalytic domain) (Homo sapiens (Human), UniProt Q14432); experiment: PDE enzyme assay using [3H]cAMP as substrate (radiometric SPA); details: human PDE3A catalytic domain 0.008 nM, [3H]cAMP 47 nM
Chain of human PDE3A (catalytic domain) (Q14432 641-1141): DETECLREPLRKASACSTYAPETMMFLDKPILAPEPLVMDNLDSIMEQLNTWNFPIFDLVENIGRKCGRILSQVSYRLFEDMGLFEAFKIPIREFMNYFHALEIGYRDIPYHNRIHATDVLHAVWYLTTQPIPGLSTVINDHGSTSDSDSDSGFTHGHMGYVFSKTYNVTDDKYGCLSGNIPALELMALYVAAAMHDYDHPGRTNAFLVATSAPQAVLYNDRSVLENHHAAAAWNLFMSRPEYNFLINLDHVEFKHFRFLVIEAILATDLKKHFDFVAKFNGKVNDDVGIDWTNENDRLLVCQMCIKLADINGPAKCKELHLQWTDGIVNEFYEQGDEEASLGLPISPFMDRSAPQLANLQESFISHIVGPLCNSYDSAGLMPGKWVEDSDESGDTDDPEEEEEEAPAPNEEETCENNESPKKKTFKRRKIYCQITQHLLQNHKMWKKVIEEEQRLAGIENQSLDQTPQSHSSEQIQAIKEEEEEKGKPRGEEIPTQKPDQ
Text: as §1, §2
(§4) The following phosphodiesterase activities are measured using [^3H]cAMP as reaction substrate: human PDE3A (catalytic domain) and human PDE4D. Both enzymes are cloned and purified following standard procedures. The assay buffer is prepared to give a final concentration in the assay of 50 mM Tris-HCl, 8.3 mM MgCl2, 1.7 mM ethylenediaminetetraacetic acid (EDTA) and 0.1% Bovine serum albumin at pH 7.5. Final enzyme concentrations are 0.008 and 0.021 nM for PDE3A and PDE4D, respectively. Reactions are started by addition of the substrate, [^3H]cAMP, to give a final concentration of 47 nM.

human PDE4D = human PDE4D (Homo sapiens (Human), UniProt Q08499); experiment: as above; details: human PDE4D 0.021 nM, [3H]cAMP 47 nM; read-out: PDE 4D IC50
Chain of human PDE4D (Q08499 other isoform, or with tags, fused parts or gaps): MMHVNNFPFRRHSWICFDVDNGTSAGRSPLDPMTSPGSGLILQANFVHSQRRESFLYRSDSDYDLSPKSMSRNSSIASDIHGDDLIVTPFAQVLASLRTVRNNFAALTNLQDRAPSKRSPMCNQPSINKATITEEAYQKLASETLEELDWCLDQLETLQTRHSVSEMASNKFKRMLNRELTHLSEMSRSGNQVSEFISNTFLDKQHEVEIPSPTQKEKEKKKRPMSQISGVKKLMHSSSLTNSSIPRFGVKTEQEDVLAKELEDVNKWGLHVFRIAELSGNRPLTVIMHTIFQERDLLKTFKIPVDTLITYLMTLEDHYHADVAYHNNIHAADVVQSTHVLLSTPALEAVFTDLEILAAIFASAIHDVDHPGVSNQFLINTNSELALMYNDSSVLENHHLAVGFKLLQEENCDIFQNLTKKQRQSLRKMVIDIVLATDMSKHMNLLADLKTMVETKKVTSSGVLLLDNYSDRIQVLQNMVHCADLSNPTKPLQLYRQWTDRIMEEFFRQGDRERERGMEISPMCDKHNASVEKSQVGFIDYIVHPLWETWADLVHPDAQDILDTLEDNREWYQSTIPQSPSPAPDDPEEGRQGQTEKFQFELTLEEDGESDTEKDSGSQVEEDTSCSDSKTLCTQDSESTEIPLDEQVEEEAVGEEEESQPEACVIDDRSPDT
Text: as §1, §2, §4

human PDE6A/6B = human PDE6A/6B (Homo sapiens (Human), UniProt P16499+P35913); experiment: PDE enzyme assay using [3H]cGMP as substrate (radiometric SPA); details: human PDE6A/6B dimer 5 nM, [3H]cGMP 80 nM; read-out: PDE 6AB IC50
Chain of human PDE6A/6B (P16499 whole entry, change not shown): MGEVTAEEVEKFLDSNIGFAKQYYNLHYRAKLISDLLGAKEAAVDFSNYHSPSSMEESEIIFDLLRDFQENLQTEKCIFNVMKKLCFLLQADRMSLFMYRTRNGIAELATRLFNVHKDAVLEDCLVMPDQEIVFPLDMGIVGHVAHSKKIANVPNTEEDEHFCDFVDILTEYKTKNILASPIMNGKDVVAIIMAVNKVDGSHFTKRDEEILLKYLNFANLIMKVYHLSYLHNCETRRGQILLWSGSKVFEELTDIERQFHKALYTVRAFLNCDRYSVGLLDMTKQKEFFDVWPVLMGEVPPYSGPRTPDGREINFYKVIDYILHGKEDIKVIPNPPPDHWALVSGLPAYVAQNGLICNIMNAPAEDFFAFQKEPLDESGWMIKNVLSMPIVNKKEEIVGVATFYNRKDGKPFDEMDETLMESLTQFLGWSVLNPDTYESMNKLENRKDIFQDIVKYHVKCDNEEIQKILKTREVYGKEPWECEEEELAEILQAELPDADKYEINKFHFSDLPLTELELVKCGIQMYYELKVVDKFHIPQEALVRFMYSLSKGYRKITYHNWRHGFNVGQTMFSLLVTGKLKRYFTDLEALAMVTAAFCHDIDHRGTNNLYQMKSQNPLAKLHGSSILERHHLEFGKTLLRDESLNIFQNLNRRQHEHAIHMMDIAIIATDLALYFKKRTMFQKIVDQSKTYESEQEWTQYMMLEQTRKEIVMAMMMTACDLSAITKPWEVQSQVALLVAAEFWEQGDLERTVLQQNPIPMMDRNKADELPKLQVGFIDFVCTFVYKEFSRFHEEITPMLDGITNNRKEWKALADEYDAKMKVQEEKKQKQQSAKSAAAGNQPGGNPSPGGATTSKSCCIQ
Chain of human PDE6A/6B (P35913 other isoform, or with tags, fused parts or gaps isoform P35913-2): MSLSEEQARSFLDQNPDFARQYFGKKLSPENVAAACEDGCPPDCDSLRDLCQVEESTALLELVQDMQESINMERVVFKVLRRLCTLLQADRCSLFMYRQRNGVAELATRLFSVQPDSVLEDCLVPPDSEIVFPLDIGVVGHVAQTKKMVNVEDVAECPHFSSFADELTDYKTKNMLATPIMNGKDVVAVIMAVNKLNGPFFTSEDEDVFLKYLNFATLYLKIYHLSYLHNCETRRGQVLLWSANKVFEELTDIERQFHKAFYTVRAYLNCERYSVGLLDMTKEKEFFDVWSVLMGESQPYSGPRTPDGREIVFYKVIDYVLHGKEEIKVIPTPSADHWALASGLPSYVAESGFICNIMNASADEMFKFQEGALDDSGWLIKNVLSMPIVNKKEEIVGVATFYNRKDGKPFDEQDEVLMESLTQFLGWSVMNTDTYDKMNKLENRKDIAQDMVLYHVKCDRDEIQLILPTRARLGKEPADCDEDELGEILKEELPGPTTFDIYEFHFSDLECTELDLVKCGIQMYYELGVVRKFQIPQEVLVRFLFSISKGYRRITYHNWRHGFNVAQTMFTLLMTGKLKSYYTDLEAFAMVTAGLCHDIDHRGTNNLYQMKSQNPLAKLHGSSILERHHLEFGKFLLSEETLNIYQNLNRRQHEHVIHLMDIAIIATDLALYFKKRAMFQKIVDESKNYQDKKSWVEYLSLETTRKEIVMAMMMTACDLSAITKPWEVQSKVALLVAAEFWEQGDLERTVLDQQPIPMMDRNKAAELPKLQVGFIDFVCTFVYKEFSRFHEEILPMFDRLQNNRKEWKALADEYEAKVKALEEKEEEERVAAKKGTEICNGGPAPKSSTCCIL
Text: as §1, §2
The following phosphodiesterase activities are measured using [^3H]cGMP as reaction substrate: human PDE6A/6B. The catalytic active form of human PDE6 is a dimer composed of a α (human PDE6A) and β subunits (human PDE6B). The dimer of human PDE6A/6B is produced by the coexpression and purification strategy, using two purification steps, i.e., NiNTA and anti-FLAG Sepharose chromatography. The assay buffer is prepared to give a final concentration in the assay of 50 mM Tris-HCl, 8.3 mM MgCl2, 1.7 mM EDTA and 0.1% Bovine serum albumin at pH 7.5. The final enzyme concentration is 5 nM. The reactions are started by addition of the substrate, [^3H]cGMP, to give a final concentration of 80 nM.

Row | SMILES | IC50 (human PDE1C) [nM] | IC50 (human PDE1B) [nM] | IC50 (human PDE1A) [nM] | IC50 [1] [µM] | IC50 (human PDE4D) [µM] | IC50 (human PDE6A/6B) [µM]
1 | CCC(Cn1c(=O)c2nnc(C3(C4CC4)CC3)n2c2ncccc21)OC (racemic) [Example 4, rac-9-([1,1′-Bi(cyclopropan)]-1-yl)-5-(2-methoxybutyl)-pyrido[3,2-e][1,2,4]triazolo[4,3-a]pyrazin-6(5H)-one] | 0.609 ± 0.128 | 33.5 ± 6.26 | 13.9 ± 2.06 | > 100 | 33.6 | > 10
2 | CCC(Cn1c(=O)c2nnc(C3(C4CC4)CC3)n2c2ncccc21)OC (single isomer, unassigned) [Example 4a, 9-([1,1′-bi(cyclopropan)]-1-yl)-5-(2-methoxybutyl)pyrido[3,2-e][1,2,4]triazolo[4,3-a]pyrazin-6(5H)-one] | 1.49 | 40.1 | 26.8 | > 100 | > 100 | > 10
3 | CCC(Cn1c(=O)c2nnc(C3(C4CC4)CC3)n2c2ncccc21)OC (single isomer, unassigned) [Example 4b, 9-([1,1′-bi(cyclopropan)]-1-yl)-5-(2-methoxybutyl)pyrido[3,2-e][1,2,4]triazolo[4,3-a]pyrazin-6(5H)-one] | 1.46 ± 0.642 | 25.8 ± 0.614 | 15.1 ± 2.84 | – | > 100 | –
4 | CCCCn1c(=O)c2nnc(C3(C4CC4)CC3)n2c2ncc(C)cc21 [Example 1, 9-([1,1′-bi(cyclopropan)]-1-yl)-5-butyl-3-methylpyrido[3,2-e][1,2,4]triazolo[4,3-a]pyrazin-6(5H)-one] | < 0.508 | 0.406 ± 1.08 | 0.366 ± 0.765 | > 50 | 1.59 ± 0.217 | ≥ 3.45
5 | CCCCn1c(=O)c2nnc(C3(C(F)(F)F)CC3)n2c2ncc(C)cc21 [Example 2, 5-Butyl-3-methyl-9-(1-(trifluoromethyl)cyclopropyl)pyrido[3,2-e][1,2,4]triazolo[4,3-a]pyrazin-6(5H)-one] | 1.62 ± 0.231 | 12.1 ± 1.06 | 8.62 ± 2.53 | > 100 | 26 | > 10
6 | CCCn1c(=O)c2nnc(C3(C4CC4)CC3)n2c2ncc(C)cc21 [Example 3, 9-([1,1′-Bi(cyclopropan)]-1-yl)-3-methyl-5-propylpyrido[3,2-e][1,2,4]triazolo[4,3-a]pyrazin-6(5H)-one] | 2.77 ± 0.636 | 3.41 ± 1.52 | 2.59 ± 1.69 | > 100 | 2.12 | > 10
7 | O=c1c2nnc(C3(C4CC4)CC3)n2c2nc(O)ccc2n1CC1CC1 [Example 5, 9-([1,1′-bi(cylopropan)]-1-yl)-5-(cyclopropylmethyl)-2-hydroxypyrido[3,2-e][1,2,4]triazolo[4,3-a]pyrazin-6(5H)-one] | 0.931 ± 0.132 | 2.41 ± 0.846 | 2.75 ± 2.11 | 22.9 ± 1.14 | 14.7 ± 8.24 | > 10
8 | CCCCn1c(=O)c2nnc(C3(C)CC3)n2c2ncc(C)cc21 [Example 6, 5-butyl-3-methyl-9-(1-methylcyclopropyl)pyrido[3,2-e][1,2,4]triazolo[4,3-a]pyrazin-6(5H)-one] | 2.57 ± 0.544 | 15.4 ± 0.0529 | 11.6 ± 7.55 | > 100 | 6.01 | 9.59
9 | CCCCn1c(=O)c2nnc(C3(C4CC4)CC3)n2c2nc(C)c(C)cc21 [Example 7, 9-([1,1′-Bi(cyclopropan)]-1-yl)-5-butyl-2,3-dimethylpyrido[3,2-e][1,2,4]triazolo[4,3-a]pyrazin-6(5H)-one] | < 0.5 | 0.4 ± 0.867 | 0.343 ± 0.765 | 71.2 | 3.02 | 1.2

Next, values leading:

Row | IC50 (human PDE1C) [nM] | IC50 (human PDE1B) [nM] | IC50 (human PDE1A) [nM] | IC50 [1] [µM] | IC50 (human PDE4D) [µM] | IC50 (human PDE6A/6B) [µM] | SMILES
10 | 2.14 ± 0.997 | 9.34 ± 4.33 | 8.01 ± 3.55 | > 100 | 0.957 | 3.29 | CCCCn1c(=O)c2nnc(C3(C)CC3)n2c2ncc(CC)cc21 [Example 8, 5-butyl-3-ethyl-9-(1-methylcyclopropyl)pyrido[3,2-e][1,2,4]triazolo[4,3-a]pyrazin-6(5H)-one]
11 | < 0.5 | – | – | – | 0.675 | – | CCCCn1c(=O)c2nnc(C3(C4CC4)CC3)n2c2ncc(CC)cc21 [Example 9, 9-([1,1′-Bi(cyclopropan)]-1-yl)-5-butyl-3-ethylpyrido[3,2-e][1,2,4]triazolo[4,3-a]pyrazin-6(5H)-one]
12 | < 0.5 | 0.396 ± 0.749 | 0.26 ± 0.589 | > 100 | 0.972 | 0.611 | CCCCn1c(=O)c2nnc(C3(C4CC4)CC3)n2c2ncc(C(C)C)cc21 [Example 10, 9-([1,1′-bi(cyclopropan)]-1-yl)-5-butyl-3-isopropylpyrido[3,2-e][1,2,4]triazolo[4,3-a]pyrazin-6(5H)-one]
13 | < 0.5 | – | – | – | 5.56 | – | CCCCn1c(=O)c2nnc(C3(C4CC4)CC3)n2c2ncc(CO)cc21 [Example 11]
14 | 4.02 ± 0.167 | 17.4 ± 10 | 23 ± 3.62 | ≥ 93.4 | 5.13 ± 2.14 | 3.06 ± 1.45 | CCCCn1c(=O)c2nnc(C3(C)CC3)n2c2ncc(CO)cc21 [Example 12, 5-Butyl-3-(hydroxymethyl)-9-(1-methylcyclopropyl)pyrido[3,2-e][1,2,4]triazolo[4,3-a]pyrazin-6(5H)-one]
15 | < 0.5 | 1.13 ± 0.254 | 0.816 ± 0.198 | 19.2 | 2.09 | 2.99 | CCCCn1c(=O)c2nnc(C3(C4CC4)CC3)n2c2nc(C)ccc21 [Example 13, 9-([1,1′-bi(cyclopropan)]-1-yl)-5-butyl-2-methylpyrido[3,2-e][1,2,4]triazolo[4,3-a]pyrazin-6(5H)-one]
